From patent publication US12421216B2, “Voruciclib polymorphs and methods of making and using thereof” (MEI PHARMA, INC., priority 2019, dated 2025)
“Also recorded” adds a separate entry of the source. Structures can show the parent of a compound that is named as a salt.

Experiments:
Assay type in all cases: physicochemical
[1] = Qualitative solubility determination in water at room temperature, with observation of gel formation; details: for Behaviour upon addition of water (gel formation): small amount of water added to solid
Protocol: The aqueous solubility of Oxa2 (starting material) was assessed by the qualitative solubility determination approach. To 5.4 mg of Oxa2, water was added in steps of 50 μl until the material was dissolved (Exp. ID: SAS1). Visual inspection by the naked eye was used to decide whether complete dissolution occurred.
After the addition of 7.5 ml water, Oxa2 was not dissolved in water at room temperature. The suspension was heated to 50° C. upon which complete dissolution occurred, as indicated by a clear solution.
The aqueous solubility of Pho1 (Exp. ID: TCP23) was assessed by the qualitative solubility determination approach. To 5.6 mg of Pho1, water was added in steps of 50 μl until the material was dissolved (Exp. ID: SAS2). Visual inspection by the naked eye was used to decide whether complete dissolution occurred. After the addition of 700 μl water, Pho1 was not dissolved in water at room temperature whereas after a subsequent addition of 200 μl water (900 μl in total), the material completely dissolved.
The solubility of Mao1 in water was determined by adding small aliquots of water to the material until it was dissolved.

[2] = Solubility of salts in water and in 0.2 M phosphate buffer pH 6 at 37° C. after 4 hours (HPLC-DAD); details: for pH (4 h): pH at end of equilibration; for Dissolution behaviour in aqueous media (gelling, wettability): salt screen, water and/or 0.2 M phosphate buffer pH 6
In short: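 About 5 mg of salt received 200 μL aliquots of water or 0.2 M phosphate buffer pH 6, up to 1 mL, and was stirred at 37 °C for 4 h. After centrifugation and 0.2 […] PTFE filtration, dissolved concentration was determined by HPLC-DAD against voruciclib calibration, and final pH was recorded.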

[3] = Physical stability of solid forms upon drying under vacuum, HT-XRPD; details: for Physical stability upon drying under deep/high vacuum: oxalate, phosphate, malonate forms, 5 mbar, 18 h
[4] = 0.2 M phosphate buffer pH 6, 37° C., 4 hours
[5] = 0.2M phosphate buffer pH 6, 37° C., 4 hours, about 1 mg salt in 1 mL
[6] = 0.2M phosphate buffer pH 6, 37° C., 4 hours, about 5 mg salt in 1 mL
[7] = 0.2 M phosphate buffer pH 6, 37° C., 4 hours, XRPD
[8] = 0.2M phosphate buffer pH 6, 37° C., about 1 mg salt in 1 mL
[9] = 0.2M phosphate buffer pH 6, 37° C., about 5 mg salt in 1 mL
[10] = water, 37° C., 4 hours, about 1 mg salt in 1 mL
[11] = water, 37° C., 4 hours, about 5 mg salt, up to 1 mL
[12] = water, 37° C., about 1 mg salt in 1 mL
[13] = water, 37° C., about 5 mg salt, up to 1 mL

Structure (SMILES)	Behaviour upon addition of water (gel formation) [1]	Solubility in phosphate buffer [2, 4]	solubility [2, 5]	solubility [2, 6]	Solids recovered / salt dissociation after solubility determination in buffer [2, 7]	Form (4 h) of residual solid [2, 8]	pH (4 h) [2, 8]	Form (4 h) of residual solid [2, 9]	pH (4 h) [2, 9]	Dissolution behaviour in aqueous media (gelling, wettability) [2]	solubility [2, 10]	solubility [2, 11]	pH (4 h) [2, 12]	pH (4 h) [2, 13]	Physical stability upon drying under deep/high vacuum [3]	further results
CN1CC[C@@H](c2c(O)cc(O)c3c(=O)cc(-c4ccc(C(F)(F)F)cc4Cl)oc23)[C@@H]1CO.O=C(O)CC(=O)O [Mao1]	no gel-formation was observed; also recorded: gel formation was not observed	70 µg/mL	20 µg/mL	70 µg/mL	dissociation of the salt occurred	Free	6.2	Free	5.8	there was no gelling or increase in viscosity observed	(0.9) mg/mL	4440 µg/mL	4.1	3.5	physically stable	Solubility in water at room temperature ([1]; qualitative determination by adding aliquots of water, visual): approximately 13 mg/ml; Solubility in water ([2]; water, 37° C., 4 hours): 4400 µg/mL; Solids recovered after solubility determination in water ([2]; water, 37° C., 4 hours, XRPD): the solids recovered were still identical to Mao1; Form (4 h) of residual solid [2, 13]: Mao1
CN1CC[C@H](c2c(O)cc(O)c3c(=O)cc(-c4ccc(C(F)(F)F)cc4Cl)oc23)[C@H]1CO (stereo in doubt) [voruciclib malonate, 2-(2-chloro-4-(trifluoromethyl)phenyl)-5,7-dihydroxy-8-((2S,3R)-2-(hydroxymethyl)-1-methylpyrrolidin-3-yl)-4H-chromen-4-one malonate salt]	gelling was not observed when exposed to water									no gelling						Solubility pH 6 [2, 4]: 0.07 mg/mL; Solubility water ([2]; water, 37° C., 4 hours): 4400 µg/mL; solubility at 4 h ([2]; water, 37 °C, thermodynamic from solid, secondary salt screen (FIG. 290)): > 5000 µg/mL
CN1CCC(c2c(O)cc(O)c3c(=O)cc(-c4ccc(C(F)(F)F)cc4Cl)oc23)C1CO.O=P(O)(O)O (centres unmarked) [Pho1]	became a gel when exposed to water; also recorded: became a gel upon addition of water; also recorded: became a gel-like material	about 0.03 mg/mL	hazy	30 µg/mL	salt had dissociated in the buffer solution	Free	6.0	Free	5.8	no gelling was observed	(0.9) mg/mL	(5.2) mg/mL	4.6	3.7	physically stable; also recorded: remained stable	Vacuum ([3]; phosphate salt cooling crystallization, form after drying under deep vacuum (5 mbar), label = ambient-dried form): Pho1; Solid forms Vacuum ([3]; phosphate salt thermocycling solids, form after drying under deep vacuum (5 mbar, 18 h), HT-XRPD, label = ambient-dried form): Pho1
